# ChEMBL document CHEMBL1201862, “PubChem BioAssay data set” (2004)
# Calls of active or inactive are those of the source.
# Tests used:
# [1] = insulin promoter down-regulators in MIN6 cells, imaging, high-content screening, mouse beta cells (AID 1628); assay type: functional
# [2] = cytotoxicity in MIN6 insulinoma cells, dose response, cytotoxicity control, cell-based, mouse insulinoma (AID 2122); assay type: functional;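 note: confirmatory high-throughput counterscreen run to flag cytotoxic compounds; mouse MIN-6 beta cells carrying an insulin promoter eGFP reporter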
# [3] = Luminescence Cell-Based Dose Confirmation HTS to Identify Activators of 5'UTR Stem-Loop Driven Alpha-Synuclein mRNA Translation in H4 Neuroglioblastoma Cells. [Related pubchem assays: 1829 (Project Summary), 1814 (Primary HTS)]; assay type: functional
# [4] = target: T1, Short transient receptor potential channel 4 (Mus musculus, UniProt Q9QUQ5); experiment: mouse TRPC4 channel activators, dose response, cell-based, HEK293 TRPC4/mu-opioid, Fluo-4 calcium (AID 434937); assay type: functional
# T1 sequence (Q9QUQ5 whole entry): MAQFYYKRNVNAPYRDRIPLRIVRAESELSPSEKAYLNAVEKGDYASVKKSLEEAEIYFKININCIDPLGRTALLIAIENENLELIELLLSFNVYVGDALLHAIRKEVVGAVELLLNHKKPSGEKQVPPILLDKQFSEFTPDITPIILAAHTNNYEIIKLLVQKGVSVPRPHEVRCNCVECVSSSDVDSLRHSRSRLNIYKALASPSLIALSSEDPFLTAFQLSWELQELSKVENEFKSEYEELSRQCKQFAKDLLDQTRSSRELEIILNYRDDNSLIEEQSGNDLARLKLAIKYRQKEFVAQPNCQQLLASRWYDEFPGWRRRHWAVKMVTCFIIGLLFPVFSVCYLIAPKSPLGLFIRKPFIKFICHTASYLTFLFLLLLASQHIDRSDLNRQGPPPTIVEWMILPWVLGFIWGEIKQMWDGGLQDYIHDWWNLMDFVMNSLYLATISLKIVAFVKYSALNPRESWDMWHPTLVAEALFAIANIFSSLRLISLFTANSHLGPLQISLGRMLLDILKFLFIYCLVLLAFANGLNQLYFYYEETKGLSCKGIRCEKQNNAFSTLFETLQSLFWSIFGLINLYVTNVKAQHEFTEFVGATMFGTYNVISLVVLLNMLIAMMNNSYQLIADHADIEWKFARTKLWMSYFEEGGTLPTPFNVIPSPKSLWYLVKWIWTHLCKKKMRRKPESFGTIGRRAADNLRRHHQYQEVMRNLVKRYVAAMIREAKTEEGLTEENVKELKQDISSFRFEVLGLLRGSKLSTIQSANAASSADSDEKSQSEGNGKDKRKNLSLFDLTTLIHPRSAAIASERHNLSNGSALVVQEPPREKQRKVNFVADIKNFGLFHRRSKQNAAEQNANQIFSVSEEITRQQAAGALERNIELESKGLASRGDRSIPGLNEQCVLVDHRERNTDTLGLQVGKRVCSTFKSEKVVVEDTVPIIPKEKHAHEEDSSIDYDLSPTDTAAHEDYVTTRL
# [5] = Luminescence Cell-Based Dose Response HTS to Identify Activators of Luciferase Translation or Activity in H4 […] Cells. [Related pubchem assays: 1829 (Project Summary), 1814 (Primary HTS)]; assay type: functional
# H4 = experiment: Luminescence Cell-Based Dose Response HTS to Identify Activators of 5'UTR Stem-Loop Driven Prion Protein mRNA Translation in H4 Neuroglioblastoma Cells. [Related pubchem assays: 1829 (Project Summary), 1814 (Primary HTS)]; assay type: functional; conditions: Homo sapiens
# Cytochrome P450 3A4 = Cytochrome P450 3A4 (Homo sapiens, UniProt P08684);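 note: CYP3A4 tested as one member of a cytochrome P450 panel screen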
# Sequence of Cytochrome P450 3A4 (P08684 whole entry): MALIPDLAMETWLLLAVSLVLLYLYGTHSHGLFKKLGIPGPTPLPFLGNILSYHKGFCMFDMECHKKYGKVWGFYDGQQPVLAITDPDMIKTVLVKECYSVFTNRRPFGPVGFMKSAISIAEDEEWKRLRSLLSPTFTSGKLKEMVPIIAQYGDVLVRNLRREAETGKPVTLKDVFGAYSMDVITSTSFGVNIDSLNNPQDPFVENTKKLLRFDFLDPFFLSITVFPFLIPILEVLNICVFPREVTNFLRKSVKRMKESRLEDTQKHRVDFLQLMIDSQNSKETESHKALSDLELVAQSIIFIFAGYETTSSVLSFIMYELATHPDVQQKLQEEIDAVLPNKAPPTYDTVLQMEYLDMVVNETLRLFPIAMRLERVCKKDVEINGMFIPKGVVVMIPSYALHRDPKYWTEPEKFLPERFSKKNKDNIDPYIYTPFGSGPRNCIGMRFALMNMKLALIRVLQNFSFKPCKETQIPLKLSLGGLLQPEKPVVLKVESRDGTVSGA
# Cytochrome P450 2D6 = Cytochrome P450 2D6 (Homo sapiens, UniProt P10635);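 note: CYP2D6 member of a cytochrome P450 panel assay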
# Sequence of Cytochrome P450 2D6 (P10635 whole entry): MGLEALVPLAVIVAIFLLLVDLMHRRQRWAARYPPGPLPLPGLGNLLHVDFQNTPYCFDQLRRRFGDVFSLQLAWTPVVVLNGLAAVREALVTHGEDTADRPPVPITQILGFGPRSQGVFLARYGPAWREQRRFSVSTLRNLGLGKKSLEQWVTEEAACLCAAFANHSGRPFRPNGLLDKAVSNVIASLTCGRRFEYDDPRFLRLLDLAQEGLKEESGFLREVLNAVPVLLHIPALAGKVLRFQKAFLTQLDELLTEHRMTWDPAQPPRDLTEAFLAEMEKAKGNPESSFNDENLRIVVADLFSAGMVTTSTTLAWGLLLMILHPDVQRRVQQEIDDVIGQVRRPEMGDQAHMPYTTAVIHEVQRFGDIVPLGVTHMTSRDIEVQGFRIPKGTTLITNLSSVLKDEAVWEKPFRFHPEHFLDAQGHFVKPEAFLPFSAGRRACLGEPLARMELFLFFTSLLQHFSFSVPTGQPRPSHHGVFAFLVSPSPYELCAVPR
# Cytochrome P450 2C9 = Cytochrome P450 2C9 (Homo sapiens, UniProt P11712)
# Sequence of Cytochrome P450 2C9 (P11712 whole entry): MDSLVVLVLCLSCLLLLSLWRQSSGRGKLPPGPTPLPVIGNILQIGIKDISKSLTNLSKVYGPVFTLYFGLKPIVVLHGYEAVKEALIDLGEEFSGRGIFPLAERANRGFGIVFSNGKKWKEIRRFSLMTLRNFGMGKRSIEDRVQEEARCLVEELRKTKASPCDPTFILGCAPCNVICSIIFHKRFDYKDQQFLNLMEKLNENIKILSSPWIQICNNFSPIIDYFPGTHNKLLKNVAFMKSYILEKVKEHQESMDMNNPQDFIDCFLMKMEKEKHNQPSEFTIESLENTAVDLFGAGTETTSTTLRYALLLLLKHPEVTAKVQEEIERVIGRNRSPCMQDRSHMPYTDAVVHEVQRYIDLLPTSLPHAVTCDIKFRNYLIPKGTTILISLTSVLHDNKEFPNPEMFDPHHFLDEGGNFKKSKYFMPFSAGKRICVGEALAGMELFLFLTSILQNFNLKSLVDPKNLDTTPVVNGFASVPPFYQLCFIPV
# [6] = C. albicans growth with fluconazole, confirmation, fluorescence, retest (AID 2467); assay type: functional, cell-based
# [7] = NIH-3T3 fibroblast cytotoxicity, dose response, cytotoxicity control, cell-based, fluorescence, Alamar Blue, secondary assay (AID 2327); assay type: functional;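 note: NIH-3T3 mouse fibroblasts cultured with fluconazole at 8 µg/mL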
# [8] = target: Heat shock protein HSP 90-alpha (Homo sapiens, UniProt P07900); assay type: functional, organism-based
# Vero [9] = experiment: cells; assay type: functional, cell-based; conditions: Chlorocebus sabaeus
# [10] = target: T2, High affinity choline transporter 1 (Homo sapiens, UniProt Q9GZV3); experiment: CHT inhibitors, dose response, cell-based, 5-point CRC, membrane potential dye (AID 504840); assay type: functional
# T2 sequence (Q9GZV3 whole entry): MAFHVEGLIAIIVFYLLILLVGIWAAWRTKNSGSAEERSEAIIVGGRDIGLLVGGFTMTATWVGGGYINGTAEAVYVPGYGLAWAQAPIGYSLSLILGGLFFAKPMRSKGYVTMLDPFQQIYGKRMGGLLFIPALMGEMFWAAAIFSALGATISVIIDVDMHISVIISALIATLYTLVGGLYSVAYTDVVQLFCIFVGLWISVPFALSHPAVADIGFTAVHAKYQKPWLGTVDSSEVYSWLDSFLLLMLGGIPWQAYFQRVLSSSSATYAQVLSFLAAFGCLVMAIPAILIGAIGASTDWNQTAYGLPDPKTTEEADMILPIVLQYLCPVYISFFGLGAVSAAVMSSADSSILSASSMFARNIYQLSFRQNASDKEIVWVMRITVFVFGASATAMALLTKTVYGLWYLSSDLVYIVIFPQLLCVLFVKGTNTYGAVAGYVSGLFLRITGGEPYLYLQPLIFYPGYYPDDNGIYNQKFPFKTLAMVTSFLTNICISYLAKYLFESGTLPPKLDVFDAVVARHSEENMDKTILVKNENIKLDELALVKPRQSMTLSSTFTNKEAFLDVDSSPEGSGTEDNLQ
# Vero [11] = experiment: cells; assay type: functional; conditions: Chlorocebus sabaeus
# Leucine aminopeptidase = target: T3, Leucine aminopeptidase (Plasmodium falciparum 3D7, UniProt Q8IL11); experiment: P. falciparum M17LAP inhibitors, primary screen, biochemical, fluorogenic H-Leu-NHMec substrate, 1536-well (AID 1619); assay type: functional
# T3 sequence (Q8IL11 whole entry): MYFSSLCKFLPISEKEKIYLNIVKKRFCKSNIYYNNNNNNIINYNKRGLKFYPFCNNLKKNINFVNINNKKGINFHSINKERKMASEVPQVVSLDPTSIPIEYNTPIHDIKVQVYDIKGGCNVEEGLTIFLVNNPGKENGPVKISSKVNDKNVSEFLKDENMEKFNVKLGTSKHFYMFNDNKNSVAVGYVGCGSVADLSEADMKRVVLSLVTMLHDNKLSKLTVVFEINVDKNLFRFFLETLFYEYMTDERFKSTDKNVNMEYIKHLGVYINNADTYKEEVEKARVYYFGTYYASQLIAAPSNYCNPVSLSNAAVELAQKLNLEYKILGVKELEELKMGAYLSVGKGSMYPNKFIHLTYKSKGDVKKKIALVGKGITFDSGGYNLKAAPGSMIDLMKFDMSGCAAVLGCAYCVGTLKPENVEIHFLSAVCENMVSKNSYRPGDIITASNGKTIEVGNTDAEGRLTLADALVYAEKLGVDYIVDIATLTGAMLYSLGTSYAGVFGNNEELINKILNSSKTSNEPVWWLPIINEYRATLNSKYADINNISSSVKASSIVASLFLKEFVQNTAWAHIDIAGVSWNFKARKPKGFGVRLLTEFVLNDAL
# Cytochrome P450 1A2 = target: T4, Cytochrome P450 1A2 (Homo sapiens, UniProt P05177);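 note: PubChem cytochrome P450 panel assay, CYP1A2 panel member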
# T4 sequence (P05177 whole entry): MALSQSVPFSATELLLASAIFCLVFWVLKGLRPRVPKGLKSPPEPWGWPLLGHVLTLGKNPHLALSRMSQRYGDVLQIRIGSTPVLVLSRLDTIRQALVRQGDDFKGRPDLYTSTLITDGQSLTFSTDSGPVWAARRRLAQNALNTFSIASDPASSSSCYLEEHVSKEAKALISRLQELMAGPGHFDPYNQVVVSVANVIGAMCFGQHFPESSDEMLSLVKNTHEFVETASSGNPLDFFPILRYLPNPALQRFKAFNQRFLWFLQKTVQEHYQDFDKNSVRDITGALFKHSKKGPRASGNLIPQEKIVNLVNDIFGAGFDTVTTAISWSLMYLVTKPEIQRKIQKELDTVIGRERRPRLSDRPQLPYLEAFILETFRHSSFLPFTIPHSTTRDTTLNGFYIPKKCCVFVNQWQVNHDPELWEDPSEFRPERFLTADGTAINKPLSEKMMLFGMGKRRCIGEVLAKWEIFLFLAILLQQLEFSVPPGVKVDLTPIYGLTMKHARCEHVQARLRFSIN
# [12] = test system: Streptococcus sp. 'group A'; experiment: growth inhibition of control SK(-) GAS strain, dose response, counter-screen for streptokinase expression inhibitor project, luminescence, kanamycin, BacTiterGlo, confirmation (AID 1900); assay type: functional, organism-based
# Streptokinase A = target: T5, Streptokinase A (Streptococcus pyogenes serotype M1, UniProt P10520); experiment: S. pyogenes streptokinase expression inhibitors, potency, dose response, plasminogen activation absorbance, OD405 (AID 1914); assay type: functional, Streptococcus pyogenes M1 GAS;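 note: secreted streptokinase activity via plasminogen activation per viability signal from cell pellet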
# T5 sequence (P10520 whole entry): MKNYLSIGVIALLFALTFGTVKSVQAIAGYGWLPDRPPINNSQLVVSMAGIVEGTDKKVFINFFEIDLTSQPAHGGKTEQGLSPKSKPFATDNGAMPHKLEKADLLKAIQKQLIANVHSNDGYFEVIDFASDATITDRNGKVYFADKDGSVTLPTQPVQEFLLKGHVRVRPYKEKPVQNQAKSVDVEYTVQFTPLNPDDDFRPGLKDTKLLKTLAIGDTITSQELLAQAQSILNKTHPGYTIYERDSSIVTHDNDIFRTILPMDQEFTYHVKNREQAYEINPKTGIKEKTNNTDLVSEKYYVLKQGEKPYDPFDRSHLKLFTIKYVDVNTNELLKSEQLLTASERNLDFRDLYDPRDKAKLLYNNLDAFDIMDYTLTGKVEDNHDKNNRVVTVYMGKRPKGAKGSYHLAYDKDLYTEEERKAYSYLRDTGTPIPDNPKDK
# Streptococcus = experiment: Group A Streptococcus viability loss, dose response, counter-screen for streptokinase expression inhibitor project, luminescence, BacTiterGlo (AID 1915); assay type: functional, organism-based;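 note: potency for reduction of bacterial viability or growth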
# [13] = cytotoxicity toward NIH3T3 fibroblasts, dose response, counter-screen, cell-based, ATP luminescence, mouse fibroblasts (AID 2010); assay type: functional;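 note: cells exposed to compound for about 90 hours before reading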
# [14] = inhibitors of firefly luciferase expression or activity, dose response, H4 neuroglioma cells, luminescence (AID 1990); assay type: functional, cell-based
# [15] = inhibitors of SNCA 5'UTR-driven reporter translation, confirmation, H4 neuroglioma cells, luminescence (AID 1988); assay type: functional, cell-based
# [16] = target: T6, Polyadenylate-binding protein 1 (Homo sapiens, UniProt P11940); experiment: PABP1 MLLE–PAM2 interaction inhibitors, dose response, miRNA deadenylation inhibitor project, biochemical, fluorescence polarization, Cy5-PAM2 peptide, secondary (AID 602260); assay type: functional; conditions: read-out: IC50_Mean
# T6 sequence (P11940 whole entry): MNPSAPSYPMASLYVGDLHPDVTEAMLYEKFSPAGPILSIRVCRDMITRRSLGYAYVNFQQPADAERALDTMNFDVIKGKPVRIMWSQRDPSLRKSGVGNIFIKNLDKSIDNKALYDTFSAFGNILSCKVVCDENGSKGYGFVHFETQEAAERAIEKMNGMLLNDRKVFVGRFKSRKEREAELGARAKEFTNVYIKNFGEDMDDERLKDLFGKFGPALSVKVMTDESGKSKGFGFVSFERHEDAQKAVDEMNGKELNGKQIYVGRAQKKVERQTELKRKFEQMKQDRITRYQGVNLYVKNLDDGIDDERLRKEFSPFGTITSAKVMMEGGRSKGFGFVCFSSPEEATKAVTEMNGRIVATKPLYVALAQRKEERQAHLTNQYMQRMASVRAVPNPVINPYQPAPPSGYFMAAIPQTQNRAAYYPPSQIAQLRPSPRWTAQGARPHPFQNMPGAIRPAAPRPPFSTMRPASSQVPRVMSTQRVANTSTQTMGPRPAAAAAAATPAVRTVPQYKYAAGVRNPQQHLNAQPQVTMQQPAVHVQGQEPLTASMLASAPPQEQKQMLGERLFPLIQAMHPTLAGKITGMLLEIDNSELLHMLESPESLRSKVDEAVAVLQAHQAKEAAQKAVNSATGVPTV
# [17] = target: T6, Polyadenylate-binding protein 1; experiment: PABP1 MLLE–PAM2 binding inhibitor potency, dose response, biochemical, fluorescence polarization, FITC-PAM2 peptide (AID 602259); assay type: functional; conditions: read-out: IC50_Mean
# Vero [18] = experiment: Vero cell cytotoxicity, cytotoxicity control for flavivirus capping enzyme inhibitors (AID 588742); assay type: functional; conditions: Chlorocebus sabaeus
# [19] = inhibitors of intracellular T. cruzi replication, confirmation, NIH3T3 host cells, beta-gal luminescence (AID 2044); assay type: functional, cell-based;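 note: intracellular parasites grown in NIH/3T3 mouse fibroblasts as host cells; luminescent beta-galactosidase reporter signal from transgenic T. cruzi replicating inside host cells; inhibitors lower the luminescence signal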
# [20] = Luminescence Cell-Based Dose Response HTS to Identify Inhibitors of 5'UTR Stem-Loop Driven Prion Protein mRNA Translation in H4 Neuroglioblastoma Cells. [Related pubchem assays: 1827 (Project Summary), 1813 (Primary HTS)]; assay type: functional
# Genome polyprotein = Genome polyprotein (dengue virus type 2, UniProt P29990); experiment: Dengue-2 NS5 methyltransferase inhibitors, primary screen, biochemical, confirmation dose response (AID 588689); assay type: functional
# Sequence of Genome polyprotein (P29990 2492-3391 limits assumed): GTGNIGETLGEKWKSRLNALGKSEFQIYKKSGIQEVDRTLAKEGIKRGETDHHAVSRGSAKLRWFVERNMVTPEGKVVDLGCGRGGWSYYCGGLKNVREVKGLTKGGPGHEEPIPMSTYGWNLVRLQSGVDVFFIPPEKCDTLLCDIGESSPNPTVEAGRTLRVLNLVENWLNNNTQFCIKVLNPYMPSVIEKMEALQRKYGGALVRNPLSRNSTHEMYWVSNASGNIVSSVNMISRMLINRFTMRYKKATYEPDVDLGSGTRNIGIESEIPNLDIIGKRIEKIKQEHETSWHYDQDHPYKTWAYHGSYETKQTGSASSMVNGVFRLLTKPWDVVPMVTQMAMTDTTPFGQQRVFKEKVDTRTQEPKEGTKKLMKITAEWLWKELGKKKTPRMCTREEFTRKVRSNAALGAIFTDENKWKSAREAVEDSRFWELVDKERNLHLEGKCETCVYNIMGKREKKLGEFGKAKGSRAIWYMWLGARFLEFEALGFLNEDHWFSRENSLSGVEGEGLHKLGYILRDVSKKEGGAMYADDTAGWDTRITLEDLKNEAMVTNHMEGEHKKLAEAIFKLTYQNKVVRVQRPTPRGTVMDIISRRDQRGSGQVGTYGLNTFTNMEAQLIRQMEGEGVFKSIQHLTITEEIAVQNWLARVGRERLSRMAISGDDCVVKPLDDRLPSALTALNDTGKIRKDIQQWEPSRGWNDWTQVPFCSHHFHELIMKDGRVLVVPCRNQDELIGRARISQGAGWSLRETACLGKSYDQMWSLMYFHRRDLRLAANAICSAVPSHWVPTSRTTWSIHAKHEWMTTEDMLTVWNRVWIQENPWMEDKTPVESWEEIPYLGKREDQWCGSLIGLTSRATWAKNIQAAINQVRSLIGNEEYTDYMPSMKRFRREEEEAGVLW
compound,measurement,setting,value
COc1ccc2[nH]c3c(N4CCN(Cc5ccc6c(c5)OCO6)CC4)ncnc3c2c1,IC50,[1],2.79 µM (active)
same,IC50,[2],2.58 µM (active)
Clc1ccc2sc(C3CCNCC3)nc2c1,EC50,[3],0.141 µM (active)
same,EC50,[4],0.008 µM (active)
same,EC50,[5],42.4 µM (active)
same,EC50,H4,0.168 µM (active)
COc1ccc(C2=NOC(C(=O)N3CCCc4ccccc43)C2)cc1 (centres undefined),AC50,Cytochrome P450 3A4,12.6 µM (inconclusive)
same,AC50,Cytochrome P450 2D6,20 µM (inconclusive)
same,AC50,Cytochrome P450 2C9,inconclusive
COCCCNC(=O)C1CCN(S(=O)(=O)N(CC(C)C)CC(C)C)CC1,AC50,Cytochrome P450 3A4,22.4 µM (inconclusive)
same,AC50,Cytochrome P450 2C9,inconclusive
Cc1cccc(C(=O)NC(=S)NNC(=O)Cc2ccccc2)c1,EC50,[6],1.14 µM (active)
same,EC50,[7],> 150 µM (inactive)
same,AC50,[8],4.66 µM (active)
same,IC50,Vero [9],22.7 µM (active)
same,IC50,[10],13.2 µM (active)
same,EC50,[4],4.22 µM (active)
same,CC50,Vero [11],> 25 µM (active)
same,IC50,Leucine aminopeptidase,56.6 µM (active)
CCOC(=O)c1c(C)c(C(=O)N2CCCCCC2)c(C)n1C,AC50,Cytochrome P450 1A2,25.1 µM (inconclusive)
same,AC50,Cytochrome P450 2C9,inconclusive
Cc1ccccc1/N=C/C=C1\N(C)c2ccccc2C1(C)C,IC50,[1],2.44 µM (active)
same,IC50,[2],5.61 µM (active)
O=C(N/N=C/c1cc([N+](=O)[O-])cc(Br)c1O)C12CC3CCC(CC(C3)C1)C2,EC50,[12],4.67 µM (active)
same,EC50,Streptokinase A,> 150 µM (not active)
same,EC50,Streptococcus,19.7 µM (active)
same,EC50,[4],2.99 µM (active)
same,CC50,Vero [11],> 25 µM (active)
O=C1c2ccc3c4c(ccc(c24)C(=O)N1CCCCO)C(=O)N(CCCCO)C3=O,EC50,[13],4.23 µM (active)
same,EC50,[14],> 120 µM (not active)
same,EC50,[15],3.4 µM (active)
same,IC50,[16],> 66 µM (inactive)
same,IC50,[17],23.8 µM (inactive)
same,CC50,Vero [18],5.55 µM (active)
same,IC50,[1],2.96 µM (active)
same,EC50,[19],2.25 µM (active)
same,EC50,[20],13.6 µM (active)
same,IC50,[2],1.99 µM (active)
same,IC50,Genome polyprotein,> 100 µM (active)
